Assay results reported in patent US20230091047A1 (priority 2019, published 2023).
Like-named read-outs stand apart in the source and are kept apart here.

Experiments:
[1] = tested on: HBV (HepG2.117 cell line, inducibly HBV producing); assay: Anti-HBV activity: intracellular HBV DNA by real-time PCR in HepG2.117 cells after 3 days of treatment; type: cell-based, hepatitis B virus
Procedure, shortened: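 Inducible HBV-producing HepG2.117 line (Tet-off); 3-day exposure to serially diluted compound after induction; real-time PCR of intracellular viral DNA.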

in vitro = type: cell-based; settings: human, HepG2 or HepG2.117 cells, ATPlite, mean value
Procedure, shortened: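 Luminescent ATP quantitation served as the viability endpoint following a 3- or 4-day incubation with test compounds.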

[2] = Hepatitis B virus, HepG2.117, 72 h, HepG2.117 cells, 3 days of treatment, intracellular HBV DNA by real-time PCR; mean value; read-out: EC50 (μM, mean value)
[3] = 3-days incubation (unmarked values)
[4] = Hepatitis B virus, HepG2.117, 72 h, HepG2.117 cells, intracellular HBV DNA by real-time PCR, 3 days of treatment, mean value; read-out: EC50 (μM, mean value)
[5] = 3-days incubation (not marked with *)

| Compound | EC50 [1, 2] | CC50 at 3 days (in vitro; [3]) | EC50 [1, 4] | CC50 at 3 days (in vitro; [5]) | CC50 at 4 days (in vitro; 4-days incubation (values marked with *)) |
| --- | --- | --- | --- | --- | --- |
| C#C[C@H](C)Nc1nc2c(c(=O)n1-c1ccc(C(=O)NC)cc1)C[C@@H](C)N(C(=O)c1ccc(Cl)c(Cl)c1)C2 [Compound C302, 4-[(6R)-2-{[(2S)-but-3-yn-2-yl]amino}-7-(3,4-dichlorobenzoyl)-6-methyl-4-oxo-5,6,7,8-tetrahydropyrido[3,4-d]pyrimidin-3(4H)-yl]-N-methylbenzamide] | 0.06 µM | > 50 µM |  |  |  |
| COC(=O)c1ccn(-c2ccc(-n3c(NC(C)C)nc4c(c3=O)C[C@@H](C)N(C(=O)c3ccc(Cl)c(Cl)c3)C4)cc2)n1 [Compound C267, methyl 1-{4-[(6R)-7-(3,4-dichlorobenzoyl)-6-methyl-4-oxo-2-[(propan-2-yl)amino]-5,6,7,8-tetrahydropyrido[3,4-d]pyrimidin-3(4H)-yl]phenyl}-1H-pyrazole-3-carboxylate] | 0.21 µM | > 50 µM |  |  |  |
| COc1ccc(CNc2nc3c(c(=O)[nH]2)CCN(C(=O)c2ccc4occc4c2)C3)cc1 [Compound C81, 7-(1-benzofuran-5-carbonyl)-2-{[(4-methoxyphenyl)methyl]amino}-5,6,7,8-tetrahydropyrido[3,4-d]pyrimidin-4(3H)-one] | 4.49 µM | > 50 µM |  |  |  |
| CC[C@H]1Cc2c(nc(NC(C)C)n(-c3ccc(S(C)(=O)=O)cc3)c2=O)CN1C(=O)c1ccc(Cl)c(Cl)c1 (single isomer, unassigned) [Compound C158B, (6*S)-7-(3,4-dichlorobenzoyl)-6-ethyl-3-[4-(methanesulfonyl)phenyl]-2-[(propan-2-yl)amino]-5,6,7,8-tetrahydropyrido[3,4-d]pyrimidin-4(3H)-one] | 2.13 µM | 35.7 µM |  |  |  |
| COc1ccc(CNc2nc3c(c(=O)n2-c2ccc(N4CCC(NC(=O)OC(C)(C)C)C4)cc2)CCN(C(=O)c2ccc(Cl)c(Cl)c2)C3)cc1 (stereo not shown) [Compound C161, tert-butyl (1-{4-[7-(3,4-dichlorobenzoyl)-2-{[(4-methoxyphenyl)methyl]amino}-4-oxo-5,6,7,8-tetrahydropyrido[3,4-d]pyrimidin-3(4H)-yl]phenyl}pyrrolidin-3-yl)carbamate] | 2.4 µM | > 50 µM |  |  |  |
| CNC(=O)c1ccc(-n2c(NC(C)C)nc3c(c2=O)C[C@@H](C)N(C(=O)c2cc(C#N)c[nH]2)C3)cc1 [Compound C496] |  |  | > 25 µM | > 50 µM |  |
| CC(C)Nc1nc2c(c(=O)n1-c1ccc(S(C)(=O)=O)cc1)CCN(C(=O)c1nc3ccc(Cl)cc3[nH]1)C2 [Compound C163, 7-(6-chloro-1H-benzimidazole-2-carbonyl)-3-[4-(methanesulfonyl)phenyl]-2-[(propan-2-yl)amino]-5,6,7,8-tetrahydropyrido[3,4-d]pyrimidin-4(3H)-one] | 4.45 µM | > 50 µM |  |  |  |
| COc1ccc(CN(C)c2nc3c(c(=O)[nH]2)CCN(C(=O)c2ccc(Cl)c(Cl)c2)C3)cc1 [Compound C31, 7-(3,4-dichlorobenzoyl)-2-{[(4-methoxyphenyl)methyl](methyl)amino}-5,6,7,8-tetrahydropyrido[3,4-d]pyrimidin-4(3H)-one] | 2.63 µM | > 50 µM |  |  |  |
| COc1ccc(C(C)Nc2nc3c(c(=O)n2-c2ccc(NC(C)=O)cc2)C[C@@H](C)N(C(=O)c2ccc(Cl)c(Cl)c2)C3)cc1 (stereo partly shown) [Compound C410] |  |  | 0.13 µM | 32.6 µM |  |
| CNC(=O)c1ncc(-n2c(NC(C)C)nc3c(c2=O)C[C@@H](C)N(C(=O)c2ccc(Cl)c(C(F)(F)F)c2)C3)n1C [Compound C671] |  |  | 0.05 µM | > 50 µM |  |
| COc1ccc(CNc2nc3c(c(=O)[nH]2)CCN(C(=O)c2ccc(Br)c(C)c2)C3)cc1 [Compound C104, 7-(4-bromo-3-methylbenzoyl)-2-{[(4-methoxyphenyl)methyl]amino}-5,6,7,8-tetrahydropyrido[3,4-d]pyrimidin-4(3H)-one] | 1.8 µM | 24.1 µM |  |  |  |
| COC(=O)C1COCCN1c1ccc(-n2c(NC(C)C)nc3c(c2=O)CCN(C(=O)c2ccc(Cl)c(Cl)c2)C3)cc1 (stereo not shown) [Compound C179, methyl 4-{4-[7-(3,4-dichlorobenzoyl)-4-oxo-2-[(propan-2-yl)amino]-5,6,7,8-tetrahydropyrido[3,4-d]pyrimidin-3(4H)-yl]phenyl}morpholine-3-carboxylate] | 0.72 µM | 19.3 µM |  |  |  |
| Cc1csc(-c2ccc(-n3c(NC(C)C)nc4c(c3=O)C[C@@H](C)N(C(=O)c3ccc(Cl)c(Cl)c3)C4)cc2)n1 [Compound C247, (6R)-7-(3,4-dichlorobenzoyl)-6-methyl-3-[4-(4-methyl-1,3-thiazol-2-yl)phenyl]-2-[(propan-2-yl)amino]-5,6,7,8-tetrahydropyrido[3,4-d]pyrimidin-4(3H)-one] | 0.12 µM | > 50 µM |  |  |  |
| Cc1cc(-n2cccn2)ccc1-n1c(NC(C)C)nc2c(c1=O)C[C@@H](C)N(C(=O)c1ccc(Cl)c(Cl)c1)C2 [Compound C308, (6R)-7-(3,4-dichlorobenzoyl)-6-methyl-3-[2-methyl-4-(1H-pyrazol-1-yl)phenyl]-2-[(propan-2-yl)amino]-5,6,7,8-tetrahydropyrido[3,4-d]pyrimidin-4(3H)-one] | 0.11 µM | > 50 µM |  |  |  |
| CNC(=O)c1ccc(-n2c(N(C)Cc3nc(C)n[nH]3)nc3c(c2=O)C[C@@H](C)N(C(=O)c2ccc(Cl)c(Cl)c2)C3)cc1 [Compound C595] |  |  | > 25 µM | > 50 µM |  |
| CC(C)Nc1nc2c(c(=O)n1-c1ccc(S(C)(=O)=O)c(C(F)F)c1)C[C@@H](C)N(C(=O)c1ccc(Cl)c(Cl)c1)C2 [Compound C385] |  |  | 0.86 µM | > 50 µM |  |
| COc1ccc(CNc2nc3c(c(=O)[nH]2)CC(C)N(C(=O)c2ccc(Cl)c(Cl)c2)C3)cc1 (stereo not shown) [Compound C63, 7-(3,4-dichlorobenzoyl)-2-{[(4-methoxyphenyl)methyl]amino}-6-methyl-5,6,7,8-tetrahydropyrido[3,4-d]pyrimidin-4(3H)-one] | 2.59 µM | 28.4 µM |  |  |  |
| CNC(=O)c1ccc(-n2c(NCc3ccn(-c4ccc(F)cc4)n3)nc3c(c2=O)C[C@@H](C)N(C(=O)c2ccc(Cl)c(Cl)c2)C3)cc1 [Compound C465] |  |  | 0.65 µM | 22.6 µM |  |
| CNC(=O)c1ccc(-n2c(N[C@@H](C)C(C)C)nc3c(c2=O)C[C@@H](C)N(C(=O)c2ccc(Cl)c(Cl)c2)C3)cc1 [Compound C390] |  |  | 0.08 µM | 26.5 µM |  |
| COc1ccc(CNc2nc3c(c(=O)[nH]2)CCN(C(=O)c2ccc(Br)cc2)C3)cc1 [Compound C116, 7-(4-bromobenzoyl)-2-{[(4-methoxyphenyl)methyl]amino}-5,6,7,8-tetrahydropyrido[3,4-d]pyrimidin-4(3H)-one] | 21.6 µM | 27.4 µM |  |  |  |
| CNC(=O)c1ccc(-n2c(NC(CC3CC3)c3ccccc3)nc3c(c2=O)C[C@@H](C)N(C(=O)c2ccc(Cl)c(Cl)c2)C3)cc1 (stereo partly shown) [Compound C437] |  |  | 0.44 µM | 28.1 µM |  |
| CNC(=O)c1ccc(-n2c(NC(C)C)nc3c(c2=O)C[C@@H](C)N(C(=O)c2ccc(C)cc2)C3)cc1 [Compound C507] |  |  | 2.89 µM | > 50 µM |  |
| COc1ccc(CNc2nc3c(c(=O)n2-c2ccn[nH]2)CCN(C(=O)c2ccc(Cl)c(Cl)c2)C3)cc1 [Compound C107, 7-(3,4-dichlorobenzoyl)-2-{[(4-methoxyphenyl)methyl]amino}-3-(1H-pyrazol-5-yl)-5,6,7,8-tetrahydropyrido[3,4-d]pyrimidin-4(3H)-one] | 1.78 µM | 22.6 µM |  |  |  |
| COc1ccc(CNc2nc3c(c(=O)n2-c2ccccc2OC)CCN(C(=O)c2ccc(F)c(Cl)c2)C3)cc1 [Compound C3, 7-(3-chloro-4-fluorobenzoyl)-3-(2-methoxyphenyl)-2-{[(4-methoxyphenyl)methyl]amino}-5,6,7,8-tetrahydropyrido[3,4-d]pyrimidin-4(3H)-one] | 8.48 µM |  |  |  | > 50 µM |
| CNC(=O)OCC[C@@H](Nc1nc2c(c(=O)n1-c1ccc(C(=O)NC)cc1)C[C@@H](C)N(C(=O)c1ccc(Cl)c(Cl)c1)C2)C1CC1 (single isomer, unassigned) [Compound C256, (3*R)-3-cyclopropyl-3-({(6R)-7-(3,4-dichlorobenzoyl)-6-methyl-3-[4-(methylcarbamoyl)phenyl]-4-oxo-3,4,5,6,7,8-hexahydropyrido[3,4-d]pyrimidin-2-yl}amino)propyl methylcarbamate] | 3.26 µM | > 50 µM |  |  |  |
| CC(C)Nc1nc2c(c(=O)n1-c1ccc(C(=O)NC3CC3)cc1)C[C@@H](C)N(C(=O)c1ccc(Cl)c(C(F)F)c1)C2 [Compound C681] |  |  | 0.04 µM | > 50 µM |  |
| CNC(=O)c1ccc(-n2c(NC(C)C)nc3c(c2=O)C[C@@H](C)N(C(=O)c2ccc(C(F)F)c(Cl)c2)C3)cc1 [Compound C418] |  |  | 0.08 µM | > 50 µM |  |
| CC(C)Nc1nc2c(c(=O)n1-c1ccc(-n3cccn3)cc1Cl)C[C@@H](C)N(C(=O)c1ccc(Cl)c(Cl)c1)C2 [Compound C404] |  |  | 0.13 µM | > 50 µM |  |
| COc1ccc(CNc2nc3c(c(=O)[nH]2)CCN(C(=O)c2ccc(Br)c(C#N)c2)C3)cc1 [Compound C105, 2-bromo-5-[2-{[(4-methoxyphenyl)methyl]amino}-4-oxo-4,5,6,8-tetrahydropyrido[3,4-d]pyrimidine-7(3H)-carbonyl]benzonitrile] | 6.81 µM | > 50 µM |  |  |  |
